Source: ChEMBL document CHEMBL5055665, “Discovery of the Triazolo[1,5-a]Pyrimidine-Based Derivative WS-898 as a Highly Efficacious and Orally Bioavailable ABCB1 Inhibitor Capable of Overcoming Multidrug Resistance” (J Med Chem, 2021)
Calls of active or inactive are those of the source. No cut-off for these calls is given here.

Assays:
KB 3-1 [1] = assay: Reversal of resistance to paclitaxel-induced cytotoxicity in human KB 3-1 cells assessed as reversal fold at 2 uM preincubated for 4 hrs followed by paclitaxel addition and measured after 72 hrs by MTT assay relative to paclitaxel; assay type: functional; conditions: time 76 hrs
Mus musculus [2] = assay: Toxicity in BALB/c mouse xenografted with human SW-620/AD300 cells assessed as mortality at 30 mg/kg/day, ig administered 21 days in presence of paclitaxel; assay type: organism-based; conditions: in vivo, po, 504 h, time 21 day
KB-C2 [3] = assay: Reversal of resistance to paclitaxel-induced cytotoxicity in human KB-C2 cells assessed as reversal fold at 2 uM preincubated for 4 hrs followed by paclitaxel addition and measured after 72 hrs by MTT assay relative to paclitaxel; assay type: functional; conditions: time 76 hrs
SW-620 [4] = assay: Effect on ABCB1 expression in human SW-620/AD300 cells at 2 uM measured upto 96 hrs by Western blot analysis; assay type: functional, cell-based
Mus musculus [5] = assay: Hepatotoxicity in BALB/c mouse xenografted with human SW-620/AD300 cells at 30 mg/kg/day, ig administered for 21 days in presence of paclitaxel; assay type: toxicity, organism-based; conditions: in vivo, po, 504 h, time 21 day
[6] = target: T1, ATP-dependent translocase ABCB1 (Homo sapiens, UniProt P08183); assay: Binding affinity to ABCB1 in human SW-620/AD300 cells assessed as thermal stabilization of protein at 2 uM incubated for 76 hrs by CETSA-based Western blot analysis; assay type: cell-based; conditions: sw-620, 76 h
T1 sequence (P08183 whole entry): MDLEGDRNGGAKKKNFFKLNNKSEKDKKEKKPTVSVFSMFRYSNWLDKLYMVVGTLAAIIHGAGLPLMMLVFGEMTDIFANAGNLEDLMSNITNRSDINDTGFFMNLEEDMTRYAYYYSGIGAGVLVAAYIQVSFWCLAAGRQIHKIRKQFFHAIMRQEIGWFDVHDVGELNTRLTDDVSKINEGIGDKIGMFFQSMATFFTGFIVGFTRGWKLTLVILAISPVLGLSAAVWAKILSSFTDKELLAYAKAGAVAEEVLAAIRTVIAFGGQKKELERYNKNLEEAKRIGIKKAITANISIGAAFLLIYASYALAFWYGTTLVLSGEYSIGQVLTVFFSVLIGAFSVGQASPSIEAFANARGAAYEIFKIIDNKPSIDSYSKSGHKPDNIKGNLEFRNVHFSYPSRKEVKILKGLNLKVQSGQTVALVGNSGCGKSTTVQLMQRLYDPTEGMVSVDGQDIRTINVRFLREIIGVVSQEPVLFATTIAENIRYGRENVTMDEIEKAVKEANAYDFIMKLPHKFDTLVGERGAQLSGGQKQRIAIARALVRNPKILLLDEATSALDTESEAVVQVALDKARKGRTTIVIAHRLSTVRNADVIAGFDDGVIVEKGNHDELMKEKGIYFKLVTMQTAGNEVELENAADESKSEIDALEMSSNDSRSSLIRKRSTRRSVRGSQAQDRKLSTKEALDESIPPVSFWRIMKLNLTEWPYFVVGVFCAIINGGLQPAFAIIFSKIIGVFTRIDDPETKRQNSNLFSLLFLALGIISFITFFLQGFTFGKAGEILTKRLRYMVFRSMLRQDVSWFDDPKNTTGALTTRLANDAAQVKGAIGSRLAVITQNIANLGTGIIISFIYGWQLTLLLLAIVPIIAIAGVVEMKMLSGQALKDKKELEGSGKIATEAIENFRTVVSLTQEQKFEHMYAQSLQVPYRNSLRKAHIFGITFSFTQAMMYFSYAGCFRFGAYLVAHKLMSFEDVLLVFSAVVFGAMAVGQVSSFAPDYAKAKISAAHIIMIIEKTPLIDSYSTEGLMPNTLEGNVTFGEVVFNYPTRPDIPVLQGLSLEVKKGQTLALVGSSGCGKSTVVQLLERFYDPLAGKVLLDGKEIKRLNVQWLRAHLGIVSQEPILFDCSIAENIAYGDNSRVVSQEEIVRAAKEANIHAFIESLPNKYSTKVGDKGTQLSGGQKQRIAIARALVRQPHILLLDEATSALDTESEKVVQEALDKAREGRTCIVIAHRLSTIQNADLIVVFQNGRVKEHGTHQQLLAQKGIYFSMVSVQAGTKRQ

KB 3-1 [7] = assay: Reversal of resistance to paclitaxel-induced cytotoxicity in human KB 3-1 cells assessed as reversal fold at 1 uM preincubated for 4 hrs followed by paclitaxel addition and measured after 72 hrs by MTT assay relative to paclitaxel; assay type: functional; conditions: time 76 hrs
HEK293 [8] = assay: Reversal of resistance to paclitaxel-induced cytotoxicity in human HEK293/pcDNA3.1 cells assessed as reduction in paclitaxel IC50 at 2 uM preincubated for 4 hrs followed by paclitaxel addition and measured after 72 hrs by MTT assay (reference value: 1.93 +/- 0.06 nM); assay type: functional, cell-based
Mus musculus [9] = assay: Toxicity in BALB/c mouse xenografted with human SW-620/AD300 cells assessed as mortality at 30 mg/kg/day, ig administered 21 days; assay type: organism-based; conditions: in vivo, po, 504 h, time 21 day
SW-620 [10] = assay: Antitumor activity against human SW-620/AD300 cells xenografted in BALB/c nude mouse assessed as increase in tumor cell apoptosis at 30 mg/kg/day, ig administered for 21 days in presence of paclitaxel by TUNEL staining based fluorescence microscopy; assay type: functional, organism-based; conditions: time 21.0 day
HEK293 [11] = assay: Reversal of resistance to paclitaxel-induced cytotoxicity in human HEK293/ABCB1 cells assessed as reversal fold at 1 uM preincubated for 4 hrs followed by paclitaxel addition and measured after 72 hrs by MTT assay relative to paclitaxel; assay type: functional; conditions: time 76 hrs
SW-620 [12] = assay: Antitumor activity against human SW-620/AD300 cells xenografted in BALB/c nude mouse assessed as increase in cells with nuclear pyknosis at 30 mg/kg/day, ig administered for 21 days in presence of paclitaxel by TUNEL staining based fluorescence microscopy; assay type: functional, organism-based; conditions: time 21.0 day
KB 3-1 [13] = assay: Reversal of resistance to paclitaxel-induced cytotoxicity in human KB 3-1 cells assessed as reduction in paclitaxel IC50 at 1 uM preincubated for 4 hrs followed by paclitaxel addition and measured after 72 hrs by MTT assay (reference value: 4.54 +/- 1.59 nM); assay type: functional, cell-based
[14] = target: T1, ATP-dependent translocase ABCB1; assay: Activation of ABCB1 ATPase activity (unknown origin) assessed as fold stimulation of ATP hydrolysis at 0 to 20 uM using Mg-ATP as substrate incubated for 20 mins by spectrophotometric method; conditions: dose 0-20 µM
[15] = MRTinfinity in Sprague-Dawley rat at 10 mg/kg, iv measured up to 24 hrs by LC-MS/MS analysis; assay type: ADME, organism-based; conditions: in vivo
Mus musculus [16] = assay: Toxicity in BALB/c mouse xenografted with human SW-620/AD300 cells assessed as change in body weight at 30 mg/kg/day, ig administered 21 days; assay type: organism-based; conditions: in vivo, po, 504 h, time 21 day
KB-C2 [17] = assay: Reversal of resistance to paclitaxel-induced cytotoxicity in human KB-C2 cells assessed as reduction in paclitaxel IC50 at 2 uM preincubated for 4 hrs followed by paclitaxel addition and measured after 72 hrs by MTT assay (reference value: 1886.37 +/- 243.05 nM); assay type: functional, cell-based
[18] = Half life in Sprague-Dawley rat at 10 mg/kg, iv measured up to 24 hrs by LC-MS/MS analysis; assay type: ADME, organism-based; conditions: in vivo
[19] = AUClast in Sprague-Dawley rat at 10 mg/kg, iv measured up to 24 hrs by LC-MS/MS analysis; assay type: ADME, organism-based; parameters: dose 10 mg/kg, time < 24 hrs, route iv; conditions: in vivo
KB-C2 [20] = assay: Reversal of resistance to paclitaxel-induced cytotoxicity in human KB-C2 cells assessed as reduction in paclitaxel IC50 at 1 uM preincubated for 4 hrs followed by paclitaxel addition and measured after 72 hrs by MTT assay (reference value: 1886.37 +/- 243.05 nM); assay type: functional, cell-based
HEK293 [21] = assay: Reversal of resistance to paclitaxel-induced cytotoxicity in human HEK293/ABCB1 cells assessed as reversal fold at 2 uM preincubated for 4 hrs followed by paclitaxel addition and measured after 72 hrs by MTT assay relative to paclitaxel; assay type: functional; conditions: time 76 hrs
SW-620 [22] = assay: Reversal of resistance to paclitaxel-induced cytotoxicity in human SW-620/AD300 cells assessed as reversal fold at 2 uM preincubated for 4 hrs followed by paclitaxel addition and measured after 72 hrs by MTT assay relative to paclitaxel; assay type: functional; conditions: time 76 hrs
HEK293 [23] = assay: Reversal of resistance to paclitaxel-induced cytotoxicity in human HEK293/pcDNA3.1 cells assessed as reversal fold at 2 uM preincubated for 4 hrs followed by paclitaxel addition and measured after 72 hrs by MTT assay; assay type: functional; conditions: time 76 hrs
KB 3-1 [24] = assay: Reversal of resistance to paclitaxel-induced cytotoxicity in human KB 3-1 cells assessed as reduction in paclitaxel IC50 at 2 uM preincubated for 4 hrs followed by paclitaxel addition and measured after 72 hrs by MTT assay (reference value: 4.54 +/- 1.59 nM); assay type: functional, cell-based
SW-620 [25] = assay: Antitumor activity against human SW-620/AD300 cells xenografted in BALB/c nude mouse assessed as tumor growth inhibition at 30 mg/kg/day, ig administered for 21 days; assay type: functional; parameters: scale not given: the % may be the effect or the level left; conditions: time 21 day
HEK293 [26] = assay: Reversal of resistance to paclitaxel-induced cytotoxicity in human HEK293/pcDNA3.1 cells assessed as reduction in paclitaxel IC50 at 1 uM preincubated for 4 hrs followed by paclitaxel addition and measured after 72 hrs by MTT assay (reference value: 1.93 +/- 0.06 nM); assay type: functional, cell-based
SW-620 [27] = assay: Antitumor activity against human SW-620/AD300 cells xenografted in BALB/c nude mouse assessed as reduction in tumor weight at 30 mg/kg/day, ig administered for 21 days in presence of paclitaxel; assay type: functional, organism-based; conditions: time 21.0 day
SW-620 [28] = assay: Reversal of resistance to paclitaxel-induced cytotoxicity in human SW-620 cells assessed as reduction in paclitaxel IC50 at 2 uM preincubated for 4 hrs followed by paclitaxel addition and measured after 72 hrs by MTT assay (reference value: 7.69 +/- 2.78 nM); assay type: functional, cell-based
SW-620 [29] = assay: Reversal of resistance to paclitaxel-induced cytotoxicity in human SW-620/AD300 cells assessed as reduction in paclitaxel IC50 at 2 uM preincubated for 4 hrs followed by paclitaxel addition and measured after 72 hrs by MTT assay (reference value: 4.23 +/- 0.50 uM); assay type: functional, cell-based

Cc1cc(Nc2ccc(C(=O)/C=C/c3ccc4ccccc4c3)cc2)n2nc(SCc3nc4ccccc4[nH]3)nc2n1
fold change (FC) (KB 3-1 [1]): 1.29 | Activity (Mus musculus [2]): Non-Toxic | fold change (FC) (KB-C2 [3]): 513.99 | Activity (SW-620 [4]): inactive | Activity (Mus musculus [5]): Non-Toxic | Activity [6]: Active | fold change (FC) (KB 3-1 [7]): 1.11 | IC50 (HEK293 [8]): 1.31 nM | Activity (Mus musculus [9]): Non-Toxic | Activity (SW-620 [10]): Active | fold change (FC) (HEK293 [11]): 9.92 | Activity (SW-620 [12]): Active | IC50 (KB 3-1 [13]): 4.09 nM | fold change (FC) [14]: 4.68 | MRT inf [15]: 6.42 min | Activity (Mus musculus [16]): Non-Toxic | IC50 (KB-C2 [17]): 3.67 nM | half-life [18]: 85.8 min | AUC(0-t) at 24 h [19]: 9440 ng·h/mL | IC50 (KB-C2 [20]): 15.9 nM | fold change (FC) (HEK293 [21]): 24.84 | fold change (FC) (SW-620 [22]): 846 | fold change (FC) (HEK293 [23]): 1.47 | IC50 (KB 3-1 [24]): 3.53 nM | Activity (SW-620 [25]): 30% | IC50 (HEK293 [26]): 1.69 nM | Activity (SW-620 [27]): Active | IC50 (SW-620 [28]): 6.98 nM | IC50 (SW-620 [29]): 5 nM
